Data published in patent US5869494A, “Uses for barbituric acid analogs” (priority 1997, dated 1999).

What was measured:
Test in all cases: NCI tumor cell line screen (SRB assay)
Format in all cases: cell-based
Design in all cases: activity: dose or concentration left out as unconfirmed
[1] = test system: SF-539; details: Homo sapiens, read-out: PERCENT GROWTH
Description: (§1) The National Cancer Institute carried out the studies at the direction of the present inventor.
(§2) In the tests, the National Cancer Institute used the SRB (sulforhodamine B) assay as described by Skehan et al., (Journal of the National Cancer Institute, 82:13, Jul. 4, 1990, 1107-1112). Briefly, the assay is as follows. TCA-fixed cells were stained for 30 minutes with 0.4% (wt/vol) SRB dissolved in 1% acetic acid. At the end of the staining period, SRB was removed and cultures were quickly rinsed four times with 1% acetic acid to remove unbound dye. The acetic acid was poured directly into the culture wells from a beaker. […] Residual wash solution was removed by sharply flicking plates over a sink, which ensured the complete removal of rinsing solution. […] After being rinsed, the cultures were air dried until no standing moisture was visible. Bound dye was solubilized with 10 mM unbuffered Tris base (pH 10.5) for 5 minutes on a gyratory shaker.
(§3) Optical density (OD) was read in either a UVmax microtiter plate reader (Molecular Devices, Menlo Park, Calif.) or a Beckman DU-70 spectrophotometer. For maximum sensitivity, OD was measured at 564 nm. Because readings were linear with dye concentrations only below 1.8 OD units, however, suboptimal wavelengths were generally used, so that all samples in an experiment remained within the linear OD range. With most cell lines, wavelengths of approximately 490-530 nm worked well for this purpose.
(§4) Nine different non-small cell lung carcinoma cell lines, six different colon carcinoma cell lines, six different CNS (central nervous system) carcinoma cell lines, seven different melanoma cell lines, six different ovarian carcinoma cell lines, and eight different renal carcinoma cell lines were tested.

[2] = test system: SK-MEL-28; details: Homo sapiens, read-out: PERCENT GROWTH
Description: as §1, §2, §3, §4

[3] = test system: NCI-H226; details: Homo sapiens, read-out: PERCENT GROWTH
Description: as §1, §2, §3, §4

[4] = test system: SN12C; details: Homo sapiens, read-out: PERCENT GROWTH
Description: as §1, §2, §3, §4

[5] = test system: SF-268; details: Homo sapiens, read-out: PERCENT GROWTH
Description: as §1, §2, §3, §4

[6] = test system: ACHN; details: Homo sapiens, read-out: PERCENT GROWTH
Description: as §1, §2, §3, §4

[7] = test system: UACC-257; details: Homo sapiens, read-out: PERCENT GROWTH
Description: as §1, §2, §3, §4

[8] = test system: HOP-62; details: Homo sapiens, read-out: PERCENT GROWTH
Description: as §1, §2, §3, §4

[9] = test system: RXF 393; details: Homo sapiens, read-out: PERCENT GROWTH
Description: as §1, §2, §3, §4

[10] = test system: OVCAR-8; details: Homo sapiens, read-out: PERCENT GROWTH
Description: as §1, §2, §3, §4

[11] = test system: SK-OV-3; details: Homo sapiens, read-out: PERCENT GROWTH
Description: as §1, §2, §3, §4

[12] = test system: NCI-H522; details: Homo sapiens, read-out: PERCENT GROWTH
Description: as §1, §2, §3, §4

[13] = test system: EKVX; details: Homo sapiens, read-out: PERCENT GROWTH
Description: as §1, §2, §3, §4

[14] = test system: UO-31; details: Homo sapiens, read-out: PERCENT GROWTH
Description: as §1, §2, §3, §4

[15] = test system: KM12; details: Homo sapiens, read-out: PERCENT GROWTH
Description: as §1, §2, §3, §4

[16] = test system: U251; details: Homo sapiens, U-251, read-out: PERCENT GROWTH
Description: as §1, §2, §3, §4

[17] = test system: HOP-92; details: Homo sapiens, read-out: PERCENT GROWTH
Description: as §1, §2, §3, §4

`CCCCN1C(=O)CC(=O)N(CCCC)C1=S` [Compound C1, 4,6(1H, 5H)-pyrimidinedione, 1,3-dibutyldihydro-2-thioxo] gave an activity ([1]; 10^-3.0 Molar) of -100%, an activity at 100 µM ([1]; 10^-4.0 Molar) of 72% and an activity at 10 µM ([1]; 10^-5.0 Molar) of 101%. For the same compound, the activity at 1 µM ([1]; 10^-6.0 Molar) was 104%, the activity at 0.1 µM ([1]; 10^-7.0 Molar) was 95% and the activity ([2]; 10^-3.0 Molar) was -75%. For the same compound, the activity at 100 µM ([2]; 10^-4.0 Molar) was 69%, the activity at 10 µM ([2]; 10^-5.0 Molar) was 108% and the activity at 1 µM ([2]; 10^-6.0 Molar) was 111%. The activity at 0.1 µM ([2]; 10^-7.0 Molar) was 110%, the activity ([3]; 10^-3.0 Molar) was -39% and the activity at 100 µM ([3]; 10^-4.0 Molar) was 90%. The activity at 10 µM ([3]; 10^-5.0 Molar) was 106%, the activity at 1 µM ([3]; 10^-6.0 Molar) was 100% and the activity at 0.1 µM ([3]; 10^-7.0 Molar) was 96%. For the same compound, the activity ([4]; 10^-3.0 Molar) was -42%, the activity at 100 µM ([4]; 10^-4.0 Molar) was 62% and the activity at 10 µM ([4]; 10^-5.0 Molar) was 89%. The activity at 1 µM ([4]; 10^-6.0 Molar) was 58%, the activity at 0.1 µM ([4]; 10^-7.0 Molar) was 90% and the activity ([5]; 10^-3.0 Molar) was -58%. The activity at 100 µM ([5]; 10^-4.0 Molar) was 52%, the activity at 10 µM ([5]; 10^-5.0 Molar) was 93% and the activity at 1 µM ([5]; 10^-6.0 Molar) was 100%. It also gave an activity at 0.1 µM ([5]; 10^-7.0 Molar) of 98%, an activity ([6]; 10^-3.0 Molar) of -3% and an activity at 100 µM ([6]; 10^-4.0 Molar) of 89%. The activity at 10 µM ([6]; 10^-5.0 Molar) was 107%, the activity at 1 µM ([6]; 10^-6.0 Molar) was 105% and the activity at 0.1 µM ([6]; 10^-7.0 Molar) was 99%. For the same compound, the activity ([7]; 10^-3.0 Molar) was -77%, the activity at 100 µM ([7]; 10^-4.0 Molar) was 75% and the activity at 10 µM ([7]; 10^-5.0 Molar) was 96%. The activity at 1 µM ([7]; 10^-6.0 Molar) was 102%, the activity at 0.1 µM ([7]; 10^-7.0 Molar) was 102% and the activity ([8]; 10^-3.0 Molar) was -100%. It also gave an activity at 100 µM ([8]; 10^-4.0 Molar) of 93%, an activity at 10 µM ([8]; 10^-5.0 Molar) of 96% and an activity at 1 µM ([8]; 10^-6.0 Molar) of 99%. For the same compound, the activity at 0.1 µM ([8]; 10^-7.0 Molar) was 98%, the activity ([9]; 10^-3.0 Molar) was -85% and the activity at 100 µM ([9]; 10^-4.0 Molar) was 43%. For the same compound, the activity at 10 µM ([9]; 10^-5.0 Molar) was 86%, the activity at 1 µM ([9]; 10^-6.0 Molar) was 93% and the activity at 0.1 µM ([9]; 10^-7.0 Molar) was 93%. It also gave an activity ([10]; 10^-3.0 Molar) of -49%, an activity at 100 µM ([10]; 10^-4.0 Molar) of 81% and an activity at 10 µM ([10]; 10^-5.0 Molar) of 108%. For the same compound, the activity at 1 µM ([10]; 10^-6.0 Molar) was 106%, the activity at 0.1 µM ([10]; 10^-7.0 Molar) was 102% and the activity ([11]; 10^-3.0 Molar) was -100%. For the same compound, the activity at 100 µM ([11]; 10^-4.0 Molar) was 85%, the activity at 10 µM ([11]; 10^-5.0 Molar) was 92% and the activity at 1 µM ([11]; 10^-6.0 Molar) was 90%. It also gave an activity at 0.1 µM ([11]; 10^-7.0 Molar) of 95%, an activity ([12]; 10^-3.0 Molar) of -82% and an activity at 100 µM ([12]; 10^-4.0 Molar) of 47%. It also gave an activity at 10 µM ([12]; 10^-5.0 Molar) of 104%, an activity at 1 µM ([12]; 10^-6.0 Molar) of 102% and an activity at 0.1 µM ([12]; 10^-7.0 Molar) of 100%. For the same compound, the activity ([13]; 10^-3.0 Molar) was -69%, the activity at 100 µM ([13]; 10^-4.0 Molar) was 94% and the activity at 10 µM ([13]; 10^-5.0 Molar) was 104%. For the same compound, the activity at 1 µM ([13]; 10^-6.0 Molar) was 106%, the activity at 0.1 µM ([13]; 10^-7.0 Molar) was 98% and the activity ([14]; 10^-3.0 Molar) was -75%. It also gave an activity at 100 µM ([14]; 10^-4.0 Molar) of 63%, an activity at 10 µM ([14]; 10^-5.0 Molar) of 92% and an activity at 1 µM ([14]; 10^-6.0 Molar) of 99%. The activity at 0.1 µM ([14]; 10^-7.0 Molar) was 92%, the activity ([15]; 10^-3.0 Molar) was -90% and the activity at 100 µM ([15]; 10^-4.0 Molar) was 76%. It also gave an activity at 10 µM ([15]; 10^-5.0 Molar) of 102%, an activity at 1 µM ([15]; 10^-6.0 Molar) of 101% and an activity at 0.1 µM ([15]; 10^-7.0 Molar) of 101%. It also gave an activity ([16]; 10^-3.0 Molar) of -55%, an activity at 100 µM ([16]; 10^-4.0 Molar) of 54% and an activity at 10 µM ([16]; 10^-5.0 Molar) of 102%. It also gave an activity at 1 µM ([16]; 10^-6.0 Molar) of 111%, an activity at 0.1 µM ([16]; 10^-7.0 Molar) of 104% and an activity ([17]; 10^-3.0 Molar) of -70%. It also gave an activity at 100 µM ([17]; 10^-4.0 Molar) of 51%, an activity at 10 µM ([17]; 10^-5.0 Molar) of 104% and an activity at 1 µM ([17]; 10^-6.0 Molar) of 110%. The activity at 0.1 µM ([17]; 10^-7.0 Molar) was 104%.
